Laboratory results as given in patent US20040121965A1, “Method of treating resistant tumors” (Wyeth Holdings Corporation, priority 2002, published 2004).
Where two headings read alike, the source gives them in different places.

Assays:
KB-3-1 = assay: Cell survival assay (SRB), KB-3-1; assay type: cell-based, human; details: Homo sapiens
In short: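 Step 1: add serial compound dilutions to cells in duplicate. Step 2: incubate 3 days. Step 3: fix in 10% TCA for 1 hr at 4 °C, stain with 0.04% SRB for 10 min, wash in 1% acetic acid, solubilise in 10 mM Trizma Base, measure absorbance and derive the 50%-growth-inhibition concentration.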

[1] = system: Human Melanoma Carcinoma Lox; details: staged LOX xenograft; at MTD ('<': MTD not achieved); days 11-15
Experimental: 2.4. Growth of Tumors in Nude Mice. […] In these experiments, xenografts are implanted subcutaneously into the flanks of nude mice. […] Relative tumor mass compared to controls are assessed during the 21-day post-staging period.
Groups of 5 female nu/nu mice are injected with 1.5×10^6 KB-3-1 (A) or Lox cells (B). […] Relative tumor growth is determined during the experiment and % T/C calculated. Statistical analyses are Student's t-test of treated time points vs. vehicle (*, P<0.05; **, P<0.01)

KB-8-5 (MDR1+) = assay: Cell survival assay (SRB), KB-8-5 (MDR1+); details: for IC50: Homo sapiens, MDR1, read-out: In vitro IC50 (nM) KB85
KB-V1 (MDR1++) = assay: Cell survival assay (SRB), KB-V1 (MDR1++); details: for IC50: Homo sapiens, read-out: In vitro IC50 (nM) KBV1
[2] = KB 3-1, 72 h, amount of drug needed to kill 50% of cells after three days continuous exposure, Table 11, read-out: IC50 in parental cell line KB-3-1
[3] = KB 3-1, KB-3-1 cells (paclitaxel-sensitive parent), read-out: In vitro IC50 (nM) KB-3-1

Row | Structure (SMILES) | IC50 (KB-3-1; [2]) [nM] | IC50 (KB-3-1; [3]) [nM] | Activity in nude mice animal model (% T/C @ MTD on days 11-15) LOX [1] | Ratio KB85/KB (KB-8-5 (MDR1+)) | IC50 (KB-8-5 (MDR1+)) [nM] | Ratio KBV1/KB (KB-V1 (MDR1++)) | IC50 (KB-V1 (MDR1++)) [nM]
1 | CN[C@H](C(=O)N[C@H](C(=O)N(C)[C@H](/C=C(\C)C(=O)O)C(C)C)C(C)(C)C)C(C)(C)c1ccc(C)c(C)c1 [Example 14, N,β,β,3,4-Pentamethyl-L-phenylalanyl-N^1-[(1S,2E)-3-carboxy-1-isopropyl-2-butenyl]-N^1,3-dimethyl-L-valinamide] | 0.4 | 0.408 | 2% | 2.8 | 1.13 | 95.6 | 39
2 | CN[C@H](C(=O)N[C@H](C(=O)N(C)[C@H](/C=C(\C)C(=O)O)C(C)C)C(C)(C)C)C(C)(C)c1cccs1 [Example 20, N-Methyl-3-(2-thienyl)-L-valyl-N^1-[(1S,2E)-3-carboxy-1-isopropyl-2-butenyl]-N^1,3-dimethyl-L-valinamide] | 2 | 2 | 3% | 2.0 | 3.9 | 80.9 | 162
3 | C/C(=C\[C@H](C(C)C)N(C)C(=O)[C@@H](NC(=O)[C@@H](N(C)C)C(C)(C)c1ccccc1)C(C)(C)C)C(=O)O [Example 52, N,N,β, β-Tetramethyl-L-phenylalanyl-N^1-[(1S,2E)-3-carboxy-1-isopropyl-2-butenyl]-N^1,3-dimethyl-L-valinamide] | 1.6 | 1.55 | 1% | 2.4 | 3.7 | 74.6 | 116
4 | CN[C@H](C(=O)N[C@H](C(=O)N(C)[C@H](/C=C(\C)C(=O)O)C(C)C)C(C)(C)C)C(C)(C)c1ccc(OC)cc1 [Example 57, N,O,β,β-tetramethyl-L-tyrosyl-N^1-[(1S,2E)-3-carboxy-1-isopropyl-2-butenyl]-N^1,3-dimethyl-L-valinamide] | 1.4 | 1.4 | <1^4% | 2.9 | 4.1 | 102.0 | 142
5 | CN[C@H](C(=O)N[C@H](C(=O)N(C)[C@H](/C=C(\C)C(=O)O)C(C)C)C(C)(C)C)C(C)(C)c1cccc(C(F)(F)F)c1 [Example 62, N,β,β-Trimethyl-3-(trifluoromethyl)-L-phenylalanyl-N^1-[(1S,2E)-3-carboxy-1-isopropyl-2-butenyl]-N^1,3-dimethyl-L-valinamide] | 0.7 | 0.647 | 2% | 2.6 | 1.7 | 66.0 | 42.7
6 | CN[C@@H](C(=O)N[C@H](C(=O)N(C)[C@H](/C=C(\C)C(=O)O)C(C)C)C(C)(C)C)C(C)(C)c1cc(F)cc(F)c1 [Example 65, 3,5-Difluoro-N,β,β-trimethyl-D-phenylalanyl-N^1-[(1S,2E)-3-carboxy-1-isopropylbut-2-enyl]-N^1,3-dimethyl-L-valinamide] | 2 | 2 | 8% | 1.5 | 2.9 | 38.8 | 77.6
7 | CN[C@H](C(=O)N[C@H](C(=O)N(C)[C@H](/C=C(\C)C(=O)O)C(C)C)C(C)(C)C)C(C)(C)C1CCCCC1 [Example 70, 3-Cyclohexyl-N-methyl-L-valyl-N-1-[(1S,2E)-3-carboxy-1-isopropyl-2-butenyl]-N-1,3-dimethyl-L-valinamide] | 3.7 | 3.7 | 4% | 1.5 | 5.6 | 40.9 | 151
8 | CC/C(=C\[C@H](C(C)C)N(C)C(=O)[C@@H](NC(=O)[C@@H](NC)C(C)(C)c1ccccc1)C(C)(C)C)C(=O)O [Example 78, N,β,β-Trimethyl-L-phenylalanyl-N^1-[(1S,2E)-3-carboxy-1-isopropyl-2-pentenyl]-N 1,3-dimethyl-L-valinamide] | 5.4 | 5.4 | 17% | 2.5 | 13.7 | 94.9 | 512
9 | CN[C@H](C(=O)N[C@H](C(=O)N(C)[C@H](/C=C(\C)C(=O)O)C(C)C)C(C)(C)SC)C(C)(C)c1ccccc1 [Example 80, (E,4S)-2,5-dimethyl-4-{methyl[(2R)-3-methyl-2-{[(2S)-3-methyl-2-(methylamino)-3-phenylbutanoyl]amino}-3-(methylsulfanyl)butanoyl]amino}-2-hexenoic Acid] | 2.7 | 2.7 | 8^4% | 2.6 | 7.1 | 112.2 | 303
10 | CN[C@H](C(=O)N[C@H](C(=O)N(C)[C@H](/C=C(\C)C(=O)O)C(C)C)C(C)C)C(C)(C)c1ccccc1.O=C(O)C(F)(F)F [Example 105, N,β,β-trimethyl-L-phenylalanyl-N^1-[(1S,2E)-3-carboxy-1-isopropyl-2-butenyl]-N^1-methyl-L-valinamide Trifluoroacetic Acid] | 5.2 | 5.25 | 8% | 2.1 | 11.1 | 54.9 | 288
11 | CC[C@H](C)[C@H](NC(=O)[C@@H](NC)C(C)(C)c1ccccc1)C(=O)N(C)[C@H](/C=C(\C)C(=O)O)C(C)C.O=C(O)C(F)(F)F [Example 106, N,β,β-trimethyl-L-phenylalanyl-N^1-[(1S,2E)-3-carboxy-1-isopropyl-2-butenyl]-N^1-methyl-L-isoleucinamide Trifluoroacetic Acid] | 15.6 | 16 | <47^4% | 2.2 | 34 | 42.3 | 660
12 | CN[C@H](C(=O)N[C@H](C(=O)N(C)[C@H](C[C@@H](C)C(=O)O)C(C)C)C(C)(C)C)C(C)(C)c1ccccc1 [Example 124, N,β,β-trimethyl-L-phenylalanyl-N^1-[(1R,3R)-3-carboxy-1-isopropylbutyl]-N^1,3-dimethyl-L-valinamide] | 8.6 | 8.6 | 62% | 2.2 | 18.9 | 153.0 | 1320
13 | CCOC(=O)/C(C)=C/[C@H](C(C)C)N(C)C(=O)[C@@H](NC(=O)[C@@H](NC)C(C)(C)c1ccccc1)C(C)(C)C [Example 133, Ethyl (E,4S)4-[((2S)-3,3-dimethyl-2-{[(2S)-3-methyl-2-(methylamino)-3-phenylbutanoyl]amino}butanoyl)(methyl)amino]-2,5-dimethyl-2-hexenoate] | 34 | 34 | 1% | 14.5 | 499 | 54.5 | 1870
